Assays:
[1] = system: rabbit articular chondrocytes; assay: Matrix production of rabbit articular chondrocytes in the presence of IL-1; assay type: cell-based; conditions: 1 × 10^−6 M; IL-1β 1 ng/ml; until day 3; vehicle = 100
Method: Four NZW line rabbits (Kitayama Labes., Co Ltd.; male; 4-week-old) were sacrificed with bleeding under ether anesthesia and knee joints of femur side were collected aseptically. Only the cortical layer was scrapped with a surgical knife in phosphate buffer (pH 7.2) containing 0.2% glucose and then placed into a 50 ml tube containing phosphate buffered saline containing 0.2% glucose. The collected knee joint cortical layer was cut into as small sections as possible on a dish with a razor, combined with 50 ml of phosphate buffer (100 mg trypsin, 40 mg EDTA·4 Na; pH 7.2) containing 0.2% glucose, supplied with 10× trypsin-ethylenediamine tetraacetic acid tetra sodium salt (EDTA·4Na: GIBCO; Cat. No. 15400-054) and shaken at 37° C. for 15 minutes.
After shaking, the precipitates were collected by centrifugation (1,400 rpm) and washed twice with 40 ml of phosphate buffer (pH 7.2) with 0.2% glucose.
To the washed precipitates was added 40 ml of α-minimum essential medium (MEM: GIBCO; Cat. No. 12571-063) containing 60 mg of collagenase for cell diffusion (Wako Pure Chemical Industries, Ltd., 034-10533) and antibiotics (200 U/ml penicillin G and 200 μg/ml streptomycin sulfate) (GIBCO; Cat. No. 15140-122), and the mixture was transferred to a 100 ml beaker containing a sterilized stirrer bar.
The incubation was conducted in a CO2 incubator at 37° C. for 30 minutes under stirring with a stirrer bar. Deoxyribonuclease I (Takara Shuzo Co., LTD.; Cat. No. 2210A) was then added at a concentration of 70 U/ml. The cultivation was conducted under the same condition for another 30 minutes. The supernatant of the culture was collected in another vessel and the remaining cartilage slips were then cultured again for about 30 minutes in freshly prepared α-minimum essential medium containing 60 mg of collagenase and 70 U/m1 deoxyribonuclease I.
To the previously collected culture supernatant and the last culture, from which cartilage slips had been removed using a 40 μm Cell Strainer (FALCON; Cat. No. 2340), 10 ml of α-minimum essential medium (MEM: GIBCO; Cat. No. 12571-063) containing 10% fetal calf serum (GIBCO Cat. No. 10099-141) and antibiotics (200 U/ml penicillin G and 200 μg/ml streptomycin sulfate) (GIBCO; Cat. No. 15140-122) was added and centrifuged (1,400 rpm, 10 minutes).
The precipitates were washed twice with α-minimum essential medium containing 10% fetal calf serum and antibiotics, suspended with an appropriate volume of the same medium, and seeded into 48-well plates (20,000 cells/well). […]
After staining, the cells were washed 3 times with 1 ml of phosphate buffer (pH 7.2). Alcian blue which had stained cartilage matrix was dissolved with 0.25 ml of 6 M aqueous guanidine hydrochloride solution and a portion of which was used to determine the absorbance at 620 nm. […]

[2] = system: human articular chondrocytes; assay: Increase of intracellular cAMP in human articular chondrocytes (cAMP EIA); assay type: cell-based; conditions: PGE2 1 μM, 30 minutes, vehicle 0.4
Method: Human articular cartilage (articular cartilage of degenerative malum coxae patient) was soaked in phosphate buffer (pH 7.2) and only the cortical layer of the joint portion was scrapped with, a knife into a 50 ml tube containing same buffer. The collected knee joint cortical layer was cut into as small sections as possible on a dish with a razor and transferred to a centrifuge tube.
To the centrifuge tube, phosphate buffer (pH 7.2) containing 1 mg/ml of hyaluronidase (SIGMA: Cat. No. H-3506) was added and shaken at 37° C. for 15 minutes. The precipitates were separated by centrifugation (2,000 rpm, 5 minutes) and added to Hank's balanced salt solution (GIBCO; Cat. No. 15050-065) containing 0.25% trypsin and shaken at 37° C. for 30 minutes.
After separation of precipitates by centrifugation (2,000 rpm, 5 minutes), α-minimum essential medium (GIBCO; Cat. No. 12571-063) containing 0.25% collagenase for cell diffusion (Wako Pure Chemical Industries, Ltd., 034-10533) and 10% fetal calf serum (GIBCO; Cat. No. 10099-141) were added to the precipitates and shaken at 37° C. overnight.
Cartilage fragments were removed using a 40 μm Cell Strainer (FALCON; Cat. No. 2340), and α-minimum essential medium containing 10% fetal calf serum was added to the collagenase-treated cells and centrifuged (1,400 rpm, 10 minutes).
The precipitates were washed three times with α-minimum essential medium containing 10% fetal calf serum and suspended in the same medium to an appropriate volume and seeded into 48-well plates (50,000 cells/well). On the next day, the medium was replaced with α-minimum essential medium containing 10% fetal calf serum. The α-minimum essential medium used contained antibiotics (100 U/ml penicillin G and 100 μg/ml streptomycin sulfate) and an antifungal (0.25 μg/ml amphotericin B) (GIBCO; Cat. No. 15240-062). […]
After 30 minutes cultivation, medium was discarded. […] The residue was dissolved in an assay buffer attached with cAMP EIA system (Amersham Pharmacia Biotech; Cat. No. RPN225) and cAMP concentration was measured with said system.

Row | SMILES | Proteoglycan Production (%) [1] | cAMP Production (picomol/well) ([2]; 1 × 10^−5) | cAMP Production (picomol/well) ([2]; 1 × 10^−6)
1 | CCOc1cc2cc(CO)c(CO)c(-c3ccnc(-n4nc(-c5cccnc5)c5ccccc5c4=O)c3)c2cc1OCC [Compound (2)] | 143% | 23.2 picomol/well | 13.8 picomol/well
2 | COc1ccc(C(=O)Nc2c(Cl)cncc2Cl)cc1OC1CCCC1 [Compound (11)] | 121% | 10.6 picomol/well | 
